# pIC50: −log10 of the molar value.
# Target: T1, full-length beta-Catenin (Uniprot ID P35222) (Homo sapiens, UniProt P35222)
# T1 construct: 10 nM full-length beta-Catenin (Uniprot ID P35222)
# T1 sequence (P35222 1-781): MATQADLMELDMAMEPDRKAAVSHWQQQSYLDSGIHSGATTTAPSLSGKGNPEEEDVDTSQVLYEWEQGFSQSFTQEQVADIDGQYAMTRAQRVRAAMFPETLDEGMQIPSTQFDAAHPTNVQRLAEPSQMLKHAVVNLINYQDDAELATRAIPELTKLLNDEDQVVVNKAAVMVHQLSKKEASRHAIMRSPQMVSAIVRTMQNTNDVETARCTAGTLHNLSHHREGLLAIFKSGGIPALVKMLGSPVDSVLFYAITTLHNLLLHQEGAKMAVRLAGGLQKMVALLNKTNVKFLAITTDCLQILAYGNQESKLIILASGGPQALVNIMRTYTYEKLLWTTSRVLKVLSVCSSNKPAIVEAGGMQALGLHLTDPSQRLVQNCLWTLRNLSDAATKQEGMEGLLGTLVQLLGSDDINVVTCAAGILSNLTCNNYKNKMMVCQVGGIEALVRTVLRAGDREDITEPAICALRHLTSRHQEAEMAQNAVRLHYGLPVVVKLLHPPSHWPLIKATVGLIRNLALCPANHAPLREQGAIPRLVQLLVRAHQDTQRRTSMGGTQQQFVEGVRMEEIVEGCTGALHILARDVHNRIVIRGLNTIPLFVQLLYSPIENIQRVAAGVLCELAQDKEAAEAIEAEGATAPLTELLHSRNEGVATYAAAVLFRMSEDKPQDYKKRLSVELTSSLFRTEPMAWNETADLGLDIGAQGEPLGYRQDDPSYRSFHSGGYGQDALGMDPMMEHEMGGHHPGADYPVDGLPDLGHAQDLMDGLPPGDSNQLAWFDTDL
# Assay: Fluorescence polarization IC50 (beta-catenin / 5FAM-TCF4 10-53 competition)
# Format: binding
# Settings: fluorescence polarization; read-out: beta-Catenin FP IC50
row,pIC50,SMILES
1,6.81,"CC(=O)N1CCC[C@]12CC=CCCCC1(CCCC=CCCCOC(=O)N3CC[C@@](C(=O)N[C@@H](Cc4ccccc4)C(=O)N[C@@H](Cc4csc5ccccc45)C(=O)N[C@@H](CCO)C(N)=O)(C3)NC(=O)[C@H](CC(N)=O)NC(=O)[C@H](Cc3ccccc3)NC(=O)[C@H](C)NC(=O)[C@H](CCCCNC(C)C)NC(=O)[C@H](CCO)NC(=O)[C@H](CC(=O)O)NC1=O)NC(=O)[C@H](CC1CCCCC1)NC(=O)[C@H](CC(N)=O)NC2=O (stereo partly drawn) [I-1933, Ac-PL3-Asn-Cha-B5-Asp-Hse-iPrLys-Ala-Phe-Asn-PyrS2-Phe-BztA-Hse-NH2]"
2,5.56,"CC(=O)N1CCC[C@]12CC=CCCCC1(CCCC=CCCCOC(=O)N3CC[C@@](C(=O)N[C@@H](Cc4ccccc4)C(=O)N[C@@H](Cc4csc5ccccc45)C(=O)N[C@@H](CCC(N)=O)C(N)=O)(C3)NC(=O)[C@H](CC(C)C)NC(=O)[C@H](Cc3ccccc3)NC(=O)[C@H](C)NC(=O)[C@H](CCCCNC(C)C)NC(=O)[C@H](Cc3cccc(C(N)=O)c3)NC(=O)[C@H](CC(=O)O)NC1=O)NC(=O)[C@H](CC1CCCCC1)NC(=O)[C@H](CC(N)=O)NC2=O (stereo partly drawn) [I-2342, Ac-PL3-Asn-Cha-B5-Asp-3cbmf-iPrLys-Ala-Phe-Leu-PyrS2-Phe-BztA-Gln-NH2]"
3,5.37,"CC(=O)N1CCC[C@]12CC=CCCCC1(CCCC=CCCCOC(=O)N3CC[C@@](C(=O)N[C@@H](Cc4ccccc4)C(=O)N[C@@H](Cc4csc5ccccc45)C(=O)N[C@@H](CCC(N)=O)C(N)=O)(C3)NC(=O)[C@H](Cc3c[nH]c4ccccc34)NC(=O)[C@H](Cc3ccccc3)NC(=O)[C@H](C)NC(=O)[C@H](CCCCNC(C)C)NC(=O)[C@H]([C@@H](C)O)NC(=O)[C@H](CC(=O)O)NC1=O)NC(=O)[C@H](CC(C)(C)C)NC(=O)[C@H](CC(N)=O)NC2=O (stereo partly drawn) [I-1600, Ac-PL3-Asn-Npg-B5-Asp-Thr-iPrLys-Ala-Phe-Trp-PyrS2-Phe-BztA-Gln-NH2]"
4,6.40,"CC(=O)N1CCC[C@]12CC=CCCCC1(CCCC=CCCCOC(=O)N3CC[C@@](C(=O)N[C@@H](Cc4ccccc4)C(=O)N[C@@H](Cc4csc5ccccc45)C(N)=O)(C3)NC(=O)[C@H](CC(N)=O)NC(=O)[C@H](Cc3ccccc3)NC(=O)[C@H](C)NC(=O)[C@H](CCCCNC(C)C)NC(=O)[C@H](CCC(N)=O)NC(=O)[C@H](CC(=O)O)NC1=O)NC(=O)[C@H](CC1CCCCC1)NC(=O)[C@H](CC(N)=O)NC2=O (stereo partly drawn) [I-2073, Ac-PL3-Asn-Cha-B5-Asp-Gln-iPrLys-Ala-Phe-Asn-PyrS2-Phe-BztA-NH2]"
5,5.47,"CC(=O)N1CCC[C@]12CC=CCCCC1(CCCC=CCCCOC(=O)N3CC[C@@](C(=O)N[C@@H](Cc4ccccc4)C(=O)N[C@@H](Cc4csc5ccccc45)C(=O)N[C@@H](CCC(N)=O)C(N)=O)(C3)NC(=O)[C@H](CC(C)C)NC(=O)[C@H](Cc3ccccc3)NC(=O)[C@H](C)NC(=O)[C@H](CCCCNC(C)C)NC(=O)[C@H]([C@@H](C)O)NC(=O)[C@H](CC(=O)O)NC1=O)NC(=O)[C@H](CO)NC(=O)[C@H](CC(N)=O)NC2=O (stereo partly drawn) [I-1583, Ac-PL3-Asn-Ser-B5-Asp-Thr-iPrLys-Ala-Phe-Leu-PyrS2-Phe-BztA-Gln-NH2]"

# Further lines, the molecule ahead of its results:
row,SMILES,pIC50
1,"CC(=O)N1CCC[C@]12CC=CCCCC1(CCCC=CCCCOC(=O)N3CC[C@@](C(=O)N[C@@H](Cc4ccsc4)C(=O)N[C@@H](Cc4csc5ccccc45)C(=O)N[C@@H](CCC(N)=O)C(N)=O)(C3)NC(=O)[C@H](CC(C)C)NC(=O)[C@H](Cc3ccccc3)NC(=O)[C@H](C)NC(=O)[C@H](C)NC(=O)[C@H](CN3CCCC[C@@H]3C(=O)O)NC(=O)[C@H](CC(=O)O)NC1=O)NC(=O)[C@H](CC(C)(C)C)NC(=O)[C@H](CC(=O)O)NC2=O (stereo partly drawn) [I-1969, Ac-PL3-Asp-Npg-B5-Asp-R2COOPipA-Ala-Ala-Phe-Leu-PyrS2-3Thi-BztA-Gln-NH2]",7.31
2,"CC(=O)N1CCC[C@]12CCCCCCC1(CCCCCCOC(=O)N3CC(C(=O)N[C@@H](Cc4ccsc4)C(=O)N[C@@H](Cc4csc5ccccc45)C(=O)N[C@@H](CCC(N)=O)C(N)=O)(C3)NC(=O)[C@H](CC(C)C)NC(=O)[C@H](Cc3ccccc3)NC(=O)[C@H](C)NC(=O)[C@H](C)NC(=O)[C@H](CC(=O)O)NC(=O)[C@H](CC(=O)O)NC1=O)NC(=O)[C@H](CC(C)(C)C)NC(=O)[C@H](CC(=O)O)NC2=O (stereo partly drawn) [I-1832, Ac-PL3-Asp-Npg-B5-Asp-Asp-Ala-Ala-Phe-Leu-Az-3Thi-BztA-Gln-NH2]",5.95
3,"CC(=O)N1CCC[C@]12CC=CCCCC1(CCCC=CCCCOC(=O)N3CC[C@@](C(=O)N[C@@H](Cc4ccsc4)C(=O)N[C@@H](Cc4csc5ccccc45)C(=O)N[C@@H](C)C(N)=O)(C3)NC(=O)[C@H](CC(N)=O)NC(=O)[C@H](Cc3ccccc3)NC(=O)[C@H](C)NC(=O)[C@H](C)NC(=O)[C@H]([C@@H](C)O)NC(=O)[C@H](CC(N)=O)NC1=O)NC(=O)[C@H](CC(C)(C)C)NC(=O)[C@H](CC(=O)O)NC2=O (stereo partly drawn) [I-2143, Ac-PL3-Asp-Npg-B5-Asn-Thr-Ala-Ala-Phe-Asn-PyrS2-3Thi-BztA-Ala-NH2]",6.66
4,"CC(=O)N1CCC[C@]12CC=CCCCC1(CCCC=CCCCOC(=O)N3CC[C@@](C(=O)N[C@@H](Cc4ccsc4)C(=O)N[C@@H](Cc4csc5ccccc45)C(=O)N[C@@H](CCC(N)=O)C(N)=O)(C3)NC(=O)[C@H](CC(N)=O)NC(=O)[C@H](Cc3ccccc3)NC(=O)[C@H](C)NC(=O)[C@H](C)NC(=O)[C@H](CN(CC(=O)O)CC(F)(F)F)NC(=O)[C@H](CC(=O)O)NC1=O)NC(=O)[C@H](CC(C)(C)C)NC(=O)[C@H](CC(=O)O)N(C)C2=O (stereo partly drawn) [I-1162, Ac-PL3-NMeD-Npg-B5-Asp-TfeGA-Ala-Ala-Phe-Asn-PyrS2-3Thi-BztA-Gln-NH2]",5.81
5,"CCOC(=O)CC[C@@H]1NC(=O)[C@H](CC(=O)O)NC(=O)C2(CCCC=CCCCOC(=O)N3CC[C@@](C(=O)N[C@@H](Cc4ccsc4)C(=O)N[C@@H](Cc4csc5ccccc45)C(=O)N[C@@H](CCC(N)=O)C(N)=O)(C3)NC(=O)[C@H](CC(C)C)NC(=O)[C@H](Cc3ccccc3)NC(=O)[C@H](C)NC(=O)[C@H](C)NC1=O)CCCC=CC[C@]1(CCCN1C(C)=O)C(=O)N[C@@H](CC(=O)O)C(=O)N[C@@H](CC(C)(C)C)C(=O)N2 (stereo partly drawn) [I-2365, Ac-PL3-Asp-Npg-B5-Asp-[Et]GluE-Ala-Ala-Phe-Leu-PyrS2-3Thi-BztA-Gln-NH2]",5.46
6,"CC(=O)N1CCC[C@]12CC=CCCCC1(CCCC=CCCCOC(=O)N3CC[C@@](C(=O)N[C@@H](Cc4ccsc4)C(=O)N[C@@H](Cc4csc5ccccc45)C(=O)N[C@@H](CCC(N)=O)C(N)=O)(C3)NC(=O)[C@H](CC(C)C)NC(=O)[C@H](Cn3cc(CN4CCOCC4)nn3)NC(=O)[C@H](C)NC(=O)[C@H](C)NC(=O)[C@H](CN(CC(=O)O)CC(F)(F)F)NC(=O)[C@H](CC(=O)O)NC1=O)NC(=O)[C@H](CC(C)(C)C)NC(=O)[C@H](CC(=O)O)NC2=O (stereo partly drawn) [I-1859, Ac-PL3-Asp-Npg-B5-Asp-TfeGA-Ala-Ala-[MorphCH2]TriAzDap-Leu-PyrS2-3Thi-BztA-Gln-NH2]",5.96
7,"CC(=O)N1CCC[C@]12CC=CCCCC1(CCCC=CCCCOC(=O)N3CC[C@@](C(=O)N[C@@H](Cc4cccs4)C(=O)N[C@@H](Cc4csc5ccccc45)C(=O)N[C@@H](CCC(N)=O)C(N)=O)(C3)NC(=O)[C@H](CC(N)=O)NC(=O)[C@H](Cc3ccccc3)NC(=O)[C@H](C)NC(=O)[C@H](C)NC(=O)[C@H]([C@@H](C)O)NC(=O)[C@H](CC(N)=O)NC1=O)NC(=O)[C@H](CC(C)(C)C)NC(=O)[C@H](CC(=O)O)NC2=O (stereo partly drawn) [I-1736, Ac-PL3-Asp-Npg-B5-Asn-Thr-Ala-Ala-Phe-Asn-PyrS2-2Thi-BztA-Gln-NH2]",6.34

# From patent publication US20240116985A1, “STAPLED PEPTIDES AND METHODS THEREOF” (priority 2020, published 2024)
